SMILES	logP
CCCOCc1cc(=O)c(O)co1	0.3
CCc1occc(=O)c1O	0.63
CCCCOCc1cc(=O)c(O)co1	0.78
Cc1cc(=O)c(O)co1	-0.59
Cc1cc(=O)c(O)c(C)o1	0.44
CCc1oc(C)cc(=O)c1O	1.07
COCc1cc(=O)c(O)co1	-0.62
CCOCc1cc(=O)c(O)co1	-0.38

Results, then the molecule that gave them:

logP	SMILES
0.69	CCCn1cccc(O)c1=O
-0.92	O=c1ccocc1O
-0.66	NCCn1ccc(=O)c(O)c1
0.2	CCn1cccc(O)c1=O
